Source: patent US6821743B2, “Human endothelin receptor” (Shionogi Sieyaku Kabushiki Kaisha, priority 1991, dated 2004)
Entries after “also recorded” stand apart in the source; their conditions may differ. Bridge positions count the residues as written; N and C are the ends. Peptide text beside a SMILES is read from it.

Assays:
[1] = in vivo, previously shown; cited from earlier work
[2] = biological target: T1, ETB-receptor (Homo sapiens, UniProt P24530); assay: Competitive 125I-ET-1 binding assay on COS-7 cells transfected with CDM8-pHETBR
T1 construct: expressed in transfected cells; host or cells: COS-7 cells
T1 sequence (P24530 27-442): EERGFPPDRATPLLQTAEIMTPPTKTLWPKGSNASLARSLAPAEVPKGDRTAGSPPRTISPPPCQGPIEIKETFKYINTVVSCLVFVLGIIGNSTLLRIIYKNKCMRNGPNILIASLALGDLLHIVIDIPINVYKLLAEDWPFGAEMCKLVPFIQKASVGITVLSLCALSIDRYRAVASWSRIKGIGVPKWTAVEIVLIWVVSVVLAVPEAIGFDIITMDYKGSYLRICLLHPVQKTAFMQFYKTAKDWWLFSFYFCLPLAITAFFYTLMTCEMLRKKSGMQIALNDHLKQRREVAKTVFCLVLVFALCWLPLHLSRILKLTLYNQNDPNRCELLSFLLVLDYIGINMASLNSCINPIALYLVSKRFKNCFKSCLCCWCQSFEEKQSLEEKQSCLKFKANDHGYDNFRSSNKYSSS

[3] = system: rat A-10 vascular smooth muscle cell; conditions: J. Biol. Chem. 265, 14044-14049 (1990); cited from earlier work
[4] = biological target: T2, ETA-receptor (Homo sapiens, UniProt P25101); assay: Inward current in Xenopus laevis oocytes injected with ETA-receptor mRNA; type: cell-based; conditions: 1×10^−7 M peptide, holding potential −60 mV, 20° C.
T2 sequence (P25101 21-427): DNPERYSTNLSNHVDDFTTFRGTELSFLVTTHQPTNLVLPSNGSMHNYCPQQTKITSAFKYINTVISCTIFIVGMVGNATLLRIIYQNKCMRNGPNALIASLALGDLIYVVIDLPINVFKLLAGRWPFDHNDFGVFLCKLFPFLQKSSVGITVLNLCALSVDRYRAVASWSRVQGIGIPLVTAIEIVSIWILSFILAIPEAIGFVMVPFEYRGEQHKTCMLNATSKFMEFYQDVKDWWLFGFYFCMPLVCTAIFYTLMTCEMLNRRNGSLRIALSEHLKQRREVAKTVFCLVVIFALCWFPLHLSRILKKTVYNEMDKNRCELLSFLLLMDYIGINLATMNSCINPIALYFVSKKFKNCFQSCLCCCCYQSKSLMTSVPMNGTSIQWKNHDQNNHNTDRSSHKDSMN

[5] = biological target: T2, ETA-receptor; assay: Competitive 125I-ET-1 binding assay on COS-7 cells transfected with CDM8-phETIR; design: expressed in transfected cells; host or cells: COS-7 cells; conditions: displacement of 50 pM 125I-ET-1, transfected COS-7 cells, 37° C. for 60 min

CC[C@H](C)[C@H](NC(=O)[C@H](CC(=O)O)NC(=O)[C@H](CC(C)C)NC(=O)[C@H](Cc1c[nH]cn1)NC(=O)[C@@H]1CSSC[C@H](N)C(=O)N[C@@H](CO)C(=O)N[C@H]2CSSC[C@H](NC(=O)[C@H](CCC(=O)O)NC(=O)[C@H](CCCCN)NC(=O)[C@H](CC(=O)O)NC(=O)[C@H](CC(C)C)NC(=O)[C@H](Cc3c[nH]c4ccccc34)NC(=O)[C@H](CO)NC(=O)[C@H](CO)NC2=O)C(=O)N[C@@H](C(C)C)C(=O)N[C@@H](Cc2ccc(O)cc2)C(=O)N[C@@H](Cc2ccccc2)C(=O)N1)C(=O)N[C@H](C(=O)N[C@@H](Cc1c[nH]c2ccccc12)C(=O)O)[C@@H](C)CC [ET-2, Endothelin 2] (H-CSCSSWLDKECVYFCHLDIIW-OH; disulfide 1-15, 3-11; N-terminus and C-terminus assumed)
vasoconstrictor strength [1]: much more strong vasoconstrictors than ET-3
affinity of the receptor (FIG. 4) ([2]; transformant containing CDM8-pHETBR): almost the same affinity
inhibition of binding of 125I-ET-1 [3]: inhibit the binding of ^125I-ET-1
inward current recorded from the oocyte [4]: the same value of current; also recorded: A similar inward current

CC[C@H](C)[C@H](NC(=O)[C@H](CC(=O)O)NC(=O)[C@H](CC(C)C)NC(=O)[C@H](Cc1c[nH]cn1)NC(=O)[C@@H]1CSSC[C@H](N)C(=O)N[C@@H](CO)C(=O)N[C@H]2CSSC[C@H](NC(=O)[C@H](CCC(=O)O)NC(=O)[C@H](CCCCN)NC(=O)[C@H](CC(=O)O)NC(=O)[C@H](CCSC)NC(=O)[C@H](CC(C)C)NC(=O)[C@H](CO)NC(=O)[C@H](CO)NC2=O)C(=O)N[C@@H](C(C)C)C(=O)N[C@@H](Cc2ccc(O)cc2)C(=O)N[C@@H](Cc2ccccc2)C(=O)N1)C(=O)N[C@H](C(=O)N[C@@H](Cc1c[nH]c2ccccc12)C(=O)O)[C@@H](C)CC [ET-1, Endothelin 1]
vasoconstrictor strength [1]: much more strong vasoconstrictors than ET-3
inhibition of binding of 125I-ET-1 [3]: inhibit the binding of ^125I-ET-1

CC[C@H](C)[C@H](NC(=O)[C@H](CC(=O)O)NC(=O)[C@H](CC(C)C)NC(=O)[C@H](Cc1cnc[nH]1)NC(=O)[C@@H]1CSSC[C@H](N)C(=O)N[C@@H](CO)C(=O)N[C@H]2CSSC[C@H](NC(=O)[C@H](CCC(=O)O)NC(=O)[C@H](CCCCN)NC(=O)[C@H](CC(=O)O)NC(=O)[C@H](CC(C)C)NC(=O)[C@H](Cc3c[nH]c4ccccc34)NC(=O)[C@H](CO)NC(=O)[C@H](CO)NC2=O)C(=O)N[C@@H](C(C)C)C(=O)N[C@@H](Cc2ccc(O)cc2)C(=O)N[C@@H](Cc2ccccc2)C(=O)N1)C(=O)N[C@H](C(=O)N[C@@H](Cc1c[nH]c2ccccc12)C(=O)O)[C@@H](C)CC [ET-2, Endothelin 2] (H-CSCSSWLDKECVYFCHLDIIW-OH; disulfide 1-15, 3-11)
IC50 [5]: 6.1 nM
IC50 ([2]; displacement of 125I-ET-1, COS cell transformed with CDM8-pHETBR): ~1 nM
